Key:
PylRS/tRNACUA pair [1] = experiment: Site-specific incorporation into sfGFP150TAG expressed in E. coli; format: cell-based, Methanosarcina barkeri; settings: SfGFP gene with amber codon at position 150, E. coli, PylRS/tRNACUA pair
Method: FIG. 2A: The PylRS/RNACUA pair directs efficient, site-specific incorporation of 3 into sfGFP bearing an amber stop codon at position 150.
Expression and purification of sfGFP-3 from E. coli Electrocompetent E. coli DH10B cells were co-transformed with pBK-MbPylRS and psfGFP150TAG PyIT^14, 26. Transformed cells were recovered in S.O.B. (1 mL, supplemented with 0.2% glucose) for 1 h at 37° C. and used to inoculate LB containing 50 μg/mL kanamycin and 25 μg/mL tetracycline (LB-KT). The cells were incubated with shaking overnight at 37° C., 250 r.p.m. 1 mL of overnight culture was used to inoculate 100 mL of LB-KT½, the day culture was then incubated (37° C., 250 r.p.m). At O.D.600˜0.3, the culture was divided equally and supplemented with either 3 (1 mM) or H2O (500 μL) and incubated further (37° C., 250 r.p.m). At O.D.600˜0.6 protein expression was induced by the addition of arabinose (0.2%), after 4 h, the cells were harvested by centrifugation (4000 r.p.m, 20 min) and the pellet frozen until further use.
The frozen bacterial pellet was thawed on ice and resuspended in 2.5 mL lysis buffer (Bugbuster®, Novagen®, 50 μg/mL DNAse 1, Roche inhibitor cocktail and 20 mM imidazole). Cells were incubated (4° C., 30 minutes) then clarified by centrifugation (16000 g, 4° C., 30 minutes). The clarified lysates were transferred to fresh tubes and 100 μL Ni-NTA slurry added. The mixtures was incubated with agitation (4° C., 1 h) and then collected by centrifugation (1000 g, 4° C., 5 min). The beads were resuspended three times in 500 μL wash buffer (10 mM Tris-HCL, 40 mM imidazole, 200 mM NaCl, pH 8) and collected by centrifugation (1000 g, 4° C., 5 min). Finally, the beads were resuspended in 100 μL, elution buffer (10 mM Tris-HCL, 300 mM imidazole, 200 mM NaCl, pH 8), pelleted by centrifugation (1000 g, 4° C., 5 min) and the supernatant collected into fresh tubes. The elution was repeated three times with 100 μL of elution buffer. The purified proteins were analysed by 4-12% SDS-PAGE and LC-MS.

PylRS/tRNACUA pair [2] = target: PylRS/tRNACUA pair (Methanosarcina mazei, UniProt Q8PWY1); experiment: Dual luciferase reporter assay on ovary extract of flies fed amino acid; format: in vivo, D. melanogaster; design: expressed in transfected cells; host or cells: transgenic Drosophila melanogaster, ovaries (UAS-PylRS driven by nos-vp16-GAL4); settings: flies fed 10 mM amino acid
Chain of PylRS/tRNACUA pair (Methanosarcina mazei, UniProt Q8PWY1) (Q8PWY1 whole entry, the tested form may be a part): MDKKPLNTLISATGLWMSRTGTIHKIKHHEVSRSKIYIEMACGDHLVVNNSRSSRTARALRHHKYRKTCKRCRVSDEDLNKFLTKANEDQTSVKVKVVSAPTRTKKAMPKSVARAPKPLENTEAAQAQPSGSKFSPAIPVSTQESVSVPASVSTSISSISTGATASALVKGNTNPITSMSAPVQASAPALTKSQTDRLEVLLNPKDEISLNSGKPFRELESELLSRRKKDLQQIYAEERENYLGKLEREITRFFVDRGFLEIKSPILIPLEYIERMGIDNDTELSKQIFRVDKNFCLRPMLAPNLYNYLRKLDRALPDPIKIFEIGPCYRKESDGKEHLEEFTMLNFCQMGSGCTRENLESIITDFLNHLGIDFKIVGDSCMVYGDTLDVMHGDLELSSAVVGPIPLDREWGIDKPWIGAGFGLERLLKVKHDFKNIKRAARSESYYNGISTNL
Method: Dual luciferase assay on ovary extract from 10 female flies expressing Triple-Rep-L in the presence or absence of 10 mM 1 or 10 mM 3. […] The error bars represent the standard deviation of 3 technical replicates from a single biological replicate. FIG. 10B: Site-specific incorporation of 3 (or 1) into GFP_TAG_mCherry-HA in flies expressing PylRS/PyltRNACUA. The full-length protein resulting from unnatural amino acid incorporation is detected by anti-HA western blot. FIG. 10C: Specific labelling of encoded 3 with tetrazine probes. Flies were fed with no amino acid, amino acid 1 (500 flies) or amino acid 3 (100 flies). […] The full-length protein containing the unnatural amino acid was immunoprecipitated from lysed ovaries with anti-GFP beads. The beads were labelled (4g, 4 μM, 200 μL, PBS, RT, 2 h) washed.
Transgenic lines were created by P element insertion using a Drosophila embryo injection service (BestGene Inc.). Lines were generated using the following plasmids: pFT58 (Ala), pFT60 (Ser), pFT62 (Leu) and pFT63 (Met). nos-Gal4-VP16 (Bloomington 4937) and MS1096-Gal4 (Bloomington 8860) were used as Gal4 drivers. All flies were grown at 25° C. on standard Iberian medium. Flies were fed unnatural amino acids by mixing dried yeast with the appropriate concentration of amino acid (usually 10 mM) diluted in dH2O to make a paste. Ovaries were prepared from females that were grown on Iberian fly food supplemented with a yeast paste with or without the amino acid for a minimum of 48 hours. For proteome labelling experiments transgenic male flies of constructs FT58, FT60, FT62 and FT63 were crossed with nos-vp16-GAL4 virgins to generate FT58/nos-vp16-GAL4, FT60/nos-vp16-GAL4, FT62/nos-vp16-GAL4 and FT63/nos-vp16-GAL4 respectively.
Ovaries from 10 females of Triple Rep-L flies recombined with nos-Gal4-VP16 fed 3, 1 or no amino acid were dissected in 100 μl 1× Passive lysis buffer and processed for luciferase assays as previously described^20.

In the case of CC(C)(C)OC(=O)NCCCC[C@H](N)C(=O)O [amino acid 1, N^ε-[(tert-butoxy)carbonyl]-L-lysine, reference compound], the yield of protein (PylRS/tRNACUA pair [1]) is reported as 4 mg per litre of culture and the “luciferase signal dependent on amino acid addition” value (PylRS/tRNACUA pair [2]) is reported as “strong luciferase signal”.
